Results reported in ChEMBL document CHEMBL4831497, “Monoacylglycerol lipase (MAGL) inhibitors based on a diphenylsulfide-benzoylpiperidine scaffold” (Eur J Med Chem, 2021).
Active and inactive are the calls of the source. No cut-off for these calls is given here.

Experiments:
Monoglyceride lipase [1] = molecular target: T1, Monoglyceride lipase (Homo sapiens, UniProt Q99685)
T1 sequence (Q99685 whole entry): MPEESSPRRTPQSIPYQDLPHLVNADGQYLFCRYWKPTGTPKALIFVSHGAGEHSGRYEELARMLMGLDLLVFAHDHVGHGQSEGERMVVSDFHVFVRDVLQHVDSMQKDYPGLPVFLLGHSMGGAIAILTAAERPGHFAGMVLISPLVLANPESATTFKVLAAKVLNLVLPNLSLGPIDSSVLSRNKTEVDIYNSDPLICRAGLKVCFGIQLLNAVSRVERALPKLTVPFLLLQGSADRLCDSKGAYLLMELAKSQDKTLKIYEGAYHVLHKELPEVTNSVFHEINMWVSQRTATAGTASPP
Description: Inhibition of human recombinant MAGL using 4-NPA as substrate by microplate reader method

SK-OV-3 = experiment: Antiproliferative activity against human SK-OV-3 cells assessed as inhibition of cell viability for 96 hrs by cell titre glo luminescence assay; format: functional, cell-based; conditions: SK-OV-3, 96 h
COLO 201 = experiment: Antiproliferative activity against human COLO201 cells assessed as inhibition of cell viability for 96 hrs by cell titre glo luminescence assay; format: functional, cell-based; conditions: COLO 201, 96 h
OVCAR-3 = experiment: Antiproliferative activity against human OVCAR-3 cells assessed as inhibition of cell viability for 96 hrs by cell titre glo luminescence assay; format: functional, cell-based; conditions: OVCAR-3, 96 h
HCT-116 = experiment: Antiproliferative activity against human HCT-116 cells assessed as inhibition of cell viability for 96 hrs by cell titre glo luminescence assay; format: functional, cell-based; conditions: HCT-116, 96 h
Monoglyceride lipase [2] = molecular target: T1, Monoglyceride lipase; remark: listed apart in the source
Description: Inhibition of human recombinant MAGL assessed as dissociation constant using 4-NPA as substrate

COLO 205 = experiment: Antiproliferative activity against human COLO205 cells assessed as inhibition of cell viability for 96 hrs by cell titre glo luminescence assay; format: functional, cell-based; conditions: COLO 205, 96 h
MDA-MB-231 = experiment: Antiproliferative activity against human MDA-MB-231 cells assessed as inhibition of cell viability for 96 hrs by cell titre glo luminescence assay; format: functional, cell-based; conditions: MDA-MB-231, 96 h
KURAMOCHI = experiment: Antiproliferative activity against human KURAMOCHI cells assessed as inhibition of cell viability for 96 hrs by cell titre glo luminescence assay; format: functional, cell-based
[3] = molecular target: T2, Monoglyceride lipase (Homo sapiens) (UniProt Q99685); conditions: dose 320.0 nM, time 60.0 min
T2 sequence (whole entry): T1 sequence (Q99685 whole entry)

HT-29 = experiment: Antiproliferative activity against human HT-29 cells assessed as inhibition of cell viability for 96 hrs by cell titre glo luminescence assay; format: functional, cell-based; conditions: HT-29, 96 h
OVCAR-5 = experiment: Antiproliferative activity against human OVCAR-5 cells assessed as inhibition of cell viability for 96 hrs by cell titre glo luminescence assay; format: functional, cell-based; conditions: OVCAR-5, 96 h
[4] = molecular target: T2, Monoglyceride lipase (Homo sapiens); conditions: dose 8.0 nM, time 60.0 min

O=C(c1ccc(Sc2cccc(OC(F)(F)F)c2)cc1)C1CCN(C(=O)c2cc(O)ccc2F)CC1 was tested, and the IC50 (Monoglyceride lipase [1]) was 0.00186 µM, the IC50 (SK-OV-3) was 4.4 µM and the IC50 (COLO 201) was 3.3 µM. The IC50 (OVCAR-3) was 8.6 µM, the IC50 (HCT-116) was 3.4 µM and the Ki (Monoglyceride lipase [2]) was 0.00112 µM. It also gave an IC50 (COLO 205) of 2.2 µM, an IC50 (MDA-MB-231) of 10 µM and an IC50 (KURAMOCHI) of 3.7 µM. The inhibition [3] was “Active”, the IC50 (HT-29) was 2.5 µM and the IC50 (OVCAR-5) was 0.78 µM. For the same compound, the inhibition [4] was “Active”.
Compound O=C(c1ccc(Cl)cc1)C1CCN(C(=O)c2cccc(O)c2)CC1 has an IC50 (SK-OV-3) of 84 µM, an IC50 (COLO 201) of 83 µM and an IC50 (OVCAR-3) of 93 µM. The IC50 (HCT-116) was 86 µM, the IC50 (COLO 205) was 79 µM and the IC50 (MDA-MB-231) was 71 µM. It also gave an IC50 (KURAMOCHI) of 75 µM, an IC50 (HT-29) of 6.9 µM and an IC50 (OVCAR-5) of 10 µM.
Compound O=C(c1ccc(Sc2cccc(C(F)(F)F)c2)cc1)C1CCN(C(=O)c2cc(O)ccc2F)CC1 has an IC50 (SK-OV-3) of 4.4 µM, an IC50 (COLO 201) of 2.9 µM and an IC50 (OVCAR-3) of 5.7 µM. The IC50 (HCT-116) was 3.3 µM, the IC50 (COLO 205) was 3.3 µM and the IC50 (MDA-MB-231) was 5.4 µM. The IC50 (KURAMOCHI) was 3.3 µM, the IC50 (HT-29) was 8.4 µM and the IC50 (OVCAR-5) was 0.32 µM.
Work on O=C(c1ccc(Sc2cccc(Cl)c2)cc1)C1CCN(C(=O)c2cc(O)ccc2F)CC1 yielded an IC50 (Monoglyceride lipase [1]) of 0.0015 µM, an IC50 (SK-OV-3) of 8.8 µM and an IC50 (COLO 201) of 8.7 µM. The IC50 (OVCAR-3) was 12 µM, the IC50 (HCT-116) was 7.6 µM and the Ki (Monoglyceride lipase [2]) was 0.00114 µM. It also gave an IC50 (COLO 205) of 8.7 µM, an IC50 (MDA-MB-231) of 2.7 µM and an IC50 (KURAMOCHI) of 7 µM. The inhibition [3] was “Active”, the IC50 (HT-29) was 9 µM and the IC50 (OVCAR-5) was 3.7 µM. The inhibition [4] was “Active”.
